The subject of this test is washed monkey platelets. Description: sGPVI production mechanism using monkey washed platelets. Type of test: cell-based. The following applies: stimulating agent added to washed platelet suspension with calcium chloride, 37° C. for 1 hour; sGPVI in supernatant by ELISA; compared with control group without stimulating agent (FIG. 8). Here is the method: Human serum and human plasma were prepared by a 100-fold or more dilution with 0.1% BSA, 0.05% Tween 20, and 0.3 M NaCl/D-PBS and added to the F1232-7-1-immobilized plate to incubate at 28° C. for 2 hours. In addition, a recombinant human sGPVI-His that was expressed and purified by Free Style 293 Expression System (manufactured by Invitrogen) was used as the reference material. After the reaction incubation, the plate was washed with physiological saline containing 0.05% Tween 20. F1232-10-2 Fab′-HRP prepared in Example 1 as a secondary labeled antibody was diluted 100-fold with 2% rat serum and 0.05% Tween 20/D-PBS and added to the well to incubate at 28° C. for 1 hour. After washing the plate, tetramethylbenzidine (hereinafter described as TMB) that was returned to room temperature was added, and incubated for 10 minutes. After stopping the reaction by the addition of 0.5 M sulfuric acid, the absorbance at 450 nm was measured using a microplate reader SpectraMax (manufactured by Molecular Devices), and the absorbance at 650 nm was subtracted as a reference. The resulting absorbance was analyzed using a microplate data analysis software (SoftMax Pro 5.2, manufactured by Molecular Devices). In addition, the data was expressed in terms of mean±standard error (SE) in principle.
Whole blood was collected from the monkey's leg vein using sodium citrate as an anticoagulant. Platelet-rich plasma (hereinafter described as PRP) was prepared by centrifuging the obtained whole blood at 900 rpm×10 minutes, and only PRP fraction was separated gently by PIPETMAN to transfer it to a new tube. The PRP was centrifuged at 2000 rpm×10 minutes at room temperature to precipitate the platelets. […] The number of platelets was counted by Sysmex F-820 (To a Medical Electronics Co., Ltd.), and the platelet count was adjusted to 40.0×10^7/ml. […]
The production of sGPVI was examined by adding various stimulating agents such as collagen, sAβ, or fAβ, to monkey washed platelets. […] The concentration of sGPVI in the reaction mixture was measured by the ELISA method as described in Example 2.
A general note: ELISA stands for enzyme-linked immunosorbent assay.

On to “sAβ: Aβ1-42 (AnaSpec Inc) just after diluted in D-PBS, used as soluble amyloid β”, for which the “production of sGPVI” value is on record as “production of sGPVI was not observed”.
With “fibril Aβ: Aβ1-42 incubated at room temperature for one week after the dilution in D-PBS, used as fibril amyloid β” the entry was “production of sGPVI was observed”.
On to collagen, for which the “production of sGPVI” value is on record as “production of sGPVI was observed”.
